“And” between values parts separate entries of the source, which are not always exact repeats. Equal values may be shown once.
Tests used:
E. coli-AbCGT [1] = assay: Glycosylation by whole-cell biocatalyst E. coli-AbCGT; format: cell-based; conditions: fig. 2c, 30 °C, M9 medium, 12 h, 0.25 mM acceptor; Reaction-1 to -3
Experimental: The induced cells of E. coli-AbCGT were harvested by centrifugation at 3000 × g for 5 min at 4 °C and washed with ddH2O. Pellets were resuspended by M9 minimal medium containing 2% glucose to appropriate cell density (OD600 = 3.0). Prepared whole-cell biocatalyst of E. coli-AbCGT (500 μL) was then added to 2-mL tubes containing various acceptors at a concentration of 0.25 mM. The mixture was incubated at 30 °C for 12 h with shaking (200 rpm). The reactions were analyzed using GT activity assays as described above. For quantification, three parallel assays were routinely carried out.

AbCGT [2] = target: T1, AbCGT (Aloe vera, UniProt A0A7G9P699); assay: Glycosyltransferase activity assay, purified AbCGT (wild type) with aglycon acceptors and UDP-Glc; format: biochemical, Aloe barbadensis; conditions: fig. 2b, purified AbCGT, redesigned substrates; Reaction-1 to -3
T1 sequence (A0A7G9P699 entry or part of it): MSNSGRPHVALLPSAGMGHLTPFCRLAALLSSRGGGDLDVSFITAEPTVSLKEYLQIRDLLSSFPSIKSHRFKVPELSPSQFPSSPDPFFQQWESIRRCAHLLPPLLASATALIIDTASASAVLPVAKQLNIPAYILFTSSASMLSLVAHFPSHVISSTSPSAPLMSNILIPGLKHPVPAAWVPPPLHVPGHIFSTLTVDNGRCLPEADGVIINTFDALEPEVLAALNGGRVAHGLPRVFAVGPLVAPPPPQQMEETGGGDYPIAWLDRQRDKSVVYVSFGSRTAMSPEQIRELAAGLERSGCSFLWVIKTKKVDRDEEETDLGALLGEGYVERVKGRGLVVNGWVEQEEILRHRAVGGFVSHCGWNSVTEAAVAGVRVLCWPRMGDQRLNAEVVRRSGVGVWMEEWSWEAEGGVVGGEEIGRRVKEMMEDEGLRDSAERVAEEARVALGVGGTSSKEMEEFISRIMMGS

SGLT2 = target: T2, SGLT2 (Homo sapiens, UniProt P31639); assay: 1-NBDG uptake in HEK293 cells stably expressing SGLT2; format: cell-based; conditions: triplicate; for inhibition at 10 µM: HEK293, compound at 10 μM, read-out: SGLT2 inhibitory rates; for SGLT2 inhibitory rates: compound at 10 μM, 10 µM
T2 construct: Human full-length SGLT2 cDNA (NM_003041.3) was synthesized; expressed in transfected cells; host or cells: HEK293, retroviral transduction with pMSCVpuro-SGLT2, puromycin selected
T2 sequence (P31639 1-672): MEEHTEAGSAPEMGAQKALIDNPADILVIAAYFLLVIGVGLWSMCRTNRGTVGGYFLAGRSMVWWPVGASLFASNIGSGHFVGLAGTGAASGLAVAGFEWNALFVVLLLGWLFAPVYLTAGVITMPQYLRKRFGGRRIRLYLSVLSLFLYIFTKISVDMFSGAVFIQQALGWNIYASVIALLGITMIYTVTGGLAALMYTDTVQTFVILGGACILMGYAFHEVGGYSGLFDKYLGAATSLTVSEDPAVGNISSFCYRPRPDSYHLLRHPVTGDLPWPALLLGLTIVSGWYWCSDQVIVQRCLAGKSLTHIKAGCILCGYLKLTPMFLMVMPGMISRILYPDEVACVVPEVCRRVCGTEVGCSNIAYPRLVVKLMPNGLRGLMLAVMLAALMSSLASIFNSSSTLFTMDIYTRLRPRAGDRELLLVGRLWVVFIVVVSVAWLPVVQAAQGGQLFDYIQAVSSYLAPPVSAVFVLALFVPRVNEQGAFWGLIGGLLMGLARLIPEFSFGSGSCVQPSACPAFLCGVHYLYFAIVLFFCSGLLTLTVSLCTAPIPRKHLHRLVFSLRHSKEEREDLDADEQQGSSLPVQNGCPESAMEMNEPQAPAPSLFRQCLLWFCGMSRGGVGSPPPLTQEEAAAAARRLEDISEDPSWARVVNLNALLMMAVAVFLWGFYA

E. coli-AbCGT [3] = assay: Optimization of cell density and substrate concentration in whole-cell biocatalysis; format: cell-based; conditions: replicates 1-3; for Conversion rate of 46: substrate 150 mg L^‒1; for conversion rate: OD600 = 13.0
Experimental: To study the optimal cell density, the reaction was performed in various cell densities with OD600 values in the range of 1.0−15.0 and a substrate concentration of 150 mg L^‒1. […] For quantification, three parallel assays were routinely carried out.

SGLT1 = target: T3, SGLT1 (Homo sapiens, UniProt P13866); assay: 1-NBDG uptake in HEK293 cells stably expressing SGLT1; format: cell-based; conditions: HEK293, compound at 10 μM; triplicate; read-out: SGLT1 inhibitory rates
T3 construct: The full-length SGLT1 cDNA was obtained by PCR with forward primer; expressed in transfected cells
T3 sequence (P13866 1-664): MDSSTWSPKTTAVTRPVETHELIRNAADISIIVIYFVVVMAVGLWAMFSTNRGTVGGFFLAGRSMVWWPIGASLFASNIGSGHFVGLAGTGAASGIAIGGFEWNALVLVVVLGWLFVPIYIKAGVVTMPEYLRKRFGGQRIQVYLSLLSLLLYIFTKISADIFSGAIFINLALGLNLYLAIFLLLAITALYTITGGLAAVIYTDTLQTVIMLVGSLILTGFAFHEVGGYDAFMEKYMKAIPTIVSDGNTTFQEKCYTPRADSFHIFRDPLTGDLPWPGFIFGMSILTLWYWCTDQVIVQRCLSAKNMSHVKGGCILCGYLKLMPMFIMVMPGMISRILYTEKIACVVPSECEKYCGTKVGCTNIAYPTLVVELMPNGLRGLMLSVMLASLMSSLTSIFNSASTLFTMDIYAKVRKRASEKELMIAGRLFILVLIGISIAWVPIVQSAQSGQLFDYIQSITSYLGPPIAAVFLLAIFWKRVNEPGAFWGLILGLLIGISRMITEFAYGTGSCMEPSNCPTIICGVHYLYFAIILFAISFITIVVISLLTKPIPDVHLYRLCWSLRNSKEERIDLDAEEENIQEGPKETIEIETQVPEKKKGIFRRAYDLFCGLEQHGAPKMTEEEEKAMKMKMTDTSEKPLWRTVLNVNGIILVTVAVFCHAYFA

AbCGT [4] = target: T1, AbCGT; assay: Sugar donor promiscuity of AbCGT with phloretin (17) as acceptor; format: biochemical, Aloe barbadensis; conditions: sugar donor with phloretin (17) as acceptor; Reaction-1 to -3
Experimental: The reaction mixture contained 0.5 mM sugar donors (1.0 mM for di-glycosylation), 0.25 mM aglycons, 50 mM Tris-HCl (pH 7.4), and 50‒100 μg of purified AbCGT in a final volume of 100 μL. Due to the instability of some acceptors in the buffer of pH 11.0, the reactions were performed under the physiological conditions (pH 7.4, 30 °C) to compare the catalytic activities of AbGT27 with different substrates under the same conditions. The reactions were performed at 30 °C for up to 12 h and terminated by the addition of 200 μL of ice-cold methanol. Subsequently, samples were centrifuged at 15,000 × g for 30 min to collect the supernatant, and aliquots were analyzed by HPLC-UV/ESIMS. HPLC analysis was performed on a Shiseido CAPCELL PAK C18 MG III column (250 mm × 4.6 mm I.D., 5 μm, Shiseido Co., Ltd., Japan) at a flow rate of 1 mL min^‒1. The mobile phase was a gradient elution of solvents A (0.1% formic acid aqueous solution) and B (methanol). The gradient programs were used for the analysis of the reactions (Supplementary Table 6). The conversion rates of the enzyme reactions were calculated from peak areas of glycosylated products and substrates as analyzed by HPLC. To facilitate inferential statistical analysis, three parallel assays were routinely performed; the means ± SD from triplicate analyses are reported here.

SMILES | conversion rates, Whole cells (E. coli-AbCGT [1]) | conversion rates, Purified Enzyme (AbCGT [2]) [%] | inhibition at 10 µM (SGLT2) [%] | other results
CCc1c(O)cc(O)cc1O [Compound 30] | 0% | 100 | – | –
Oc1cc(O)c(CC2CC2)c(O)c1 [Compound 34] | 11.3% and 11.9% and 15.8% | 100 | – | –
Oc1cc(O)c(CC2CCC2)c(O)c1 [Compound 35] | 41.1% and 39.5% and 30.5% | 100 | – | –
Oc1cc(O)c(CC2CCCC2)c(O)c1 [Compound 36] | 53.8% and 69.1% and 57.1% | 100 | – | –
Oc1cc(O)c(CC2CCCCC2)c(O)c1 [Compound 37] | 100% | 100 | – | –
Oc1cc(O)c(Cc2ccccc2)c(O)c1 [Compound 38, 1-benzylbenzene-2,4,6-triol] | 44.3% and 46.1% and 53.7% | 100 | 4.2 | –
Oc1cc(O)c(CCc2ccccc2)c(O)c1 [Compound 39, 1-phenethylbenzene-2,4,6-triol] | 7.2% and 13.4% and 9.4% | 100 | 0.2 | –
Oc1cc(O)c(CCCCc2ccccc2)c(O)c1 [Compound 40] | 100% | 100 | – | –
Oc1cc(O)c(Cc2ccsc2)c(O)c1 [Compound 42] | 73% and 84.5% and 79.6% | 100 | 2.7 | –
Oc1cc(O)c(CCc2c[nH]c3ccccc23)c(O)c1 [Compound 43] | 87.2% and 96% and 92.6% | 100 | 12.9 | –
Cc1ccc(Cc2c(O)cc(O)cc2O)cc1 [Compound 46] | 89% and 80.2% and 82.3% | 100 | 10.8 | Conversion rate of 46 (E. coli-AbCGT [3]; OD600nm 1.0): 2% and 4% (2×); Conversion rate of 46 (E. coli-AbCGT [3]; OD600nm 3.0): 13% and 11% and 15%; Conversion rate of 46 (E. coli-AbCGT [3]; OD600nm 5.0): 22% (2×) and 19%; Conversion rate of 46 (E. coli-AbCGT [3]; OD600nm 7.0): 26% and 28% and 32%; Conversion rate of 46 (E. coli-AbCGT [3]; OD600nm 9.0): 33% (2×) and 29%; Conversion rate of 46 (E. coli-AbCGT [3]; OD600nm 11.0): 38% and 34% and 33%; Conversion rate of 46 (E. coli-AbCGT [3]; OD600nm 13.0): 38%; Conversion rate of 46 (E. coli-AbCGT [3]; OD600nm 15.0): 43% and 35% (2×); conversion rate (E. coli-AbCGT [3]; concentration of 46 57.5 mg/L): 100%; conversion rate (E. coli-AbCGT [3]; concentration of 46 115 mg/L): 100%; conversion rate (E. coli-AbCGT [3]; concentration of 46 172.5 mg/L): 100%; conversion rate (E. coli-AbCGT [3]; concentration of 46 230 mg/L): 100%; conversion rate (E. coli-AbCGT [3]; concentration of 46 287.5 mg/L): 89% and 92% and 93%; conversion rate (E. coli-AbCGT [3]; concentration of 46 345 mg/L): 27.5% and 20% and 29.8%; conversion rate (E. coli-AbCGT [3]; concentration of 46 460 mg/L): 13.6% and 13.9% and 14%; conversion rate (E. coli-AbCGT [3]; concentration of 46 575 mg/L): 8.8% and 8.5% and 8%
CCCCc1ccc(Cc2c(O)cc(O)cc2O)cc1 [Compound 47] | 2.7% and 3.2% and 3.1% | 100 | 0.2 | –
CCCCc1ccc(Cc2c(O)cc(O)c(C3OC(CO)C(O)C(O)C3O)c2O)cc1 (stereo not shown) [Compound 47a] | – | – | > 96 | inhibition at 10 µM (SGLT1): 17.1%; SGLT2 inhibitory rates (SGLT2): 100%
Oc1cc(O)c(Cc2ccc(F)cc2)c(O)c1 [Compound 48] | 86% and 92.2% and 88.8% | 100 | 0.2 | –
Oc1cc(O)c(Cc2ccc(Cl)cc2)c(O)c1 [Compound 49] | 0.8% and 0.9% | 100 | 0.2 | –
OCC1OC(c2c(O)cc(O)c(Cc3ccc(Cl)cc3)c2O)C(O)C(O)C1O (stereo not shown) [Compound 49a] | – | – | > 96 | inhibition at 10 µM (SGLT1): 34.7%; SGLT2 inhibitory rates (SGLT2): 98.5%
Oc1cc(O)c(Cc2ccc(-c3ccccc3)cc2)c(O)c1 [Compound 50] | 0% | 100 | 0.2 | –
OCC1OC(c2c(O)cc(O)c(Cc3ccc(-c4ccccc4)cc3)c2O)C(O)C(O)C1O (stereo not shown) [Compound 50a] | – | – | > 96 | inhibition at 10 µM (SGLT1): 27.1%; SGLT2 inhibitory rates (SGLT2): 96.3%
Oc1ccc(CCc2c(O)cc(O)cc2O)cc1 [Compound 51] | 87.9% and 92.2% and 95.8% | 100 | 3.3 | –
Oc1cc(O)c(CCc2ccc3c(c2)CCO3)c(O)c1 [Compound 52] | 84.1% and 72.7% and 80.3% | 100 | 0.8 | –
Oc1cc(O)c(CCc2ccc(F)cc2)c(O)c1 [Compound 53] | 66.8% and 61% and 58.3% | 100 | 0.2 | –
Oc1cc(O)c(CCc2ccc(Cl)cc2)c(O)c1 [Compound 54] | 39.8% and 44.7% and 47.4% | 100 | 0.2 | –
O=C(O)C1OC(OP(=O)(O)OP(=O)(O)OCC2OC(n3ccc(=O)[nH]c3=O)C(O)C2O)C(O)C(O)C1O [e, UDP-α-D-glucuronic acid] | – | – | – | conversion rates, O,N,S-glycosylation (AbCGT [4]): 0%; conversion rates, di-C-glycosylation (AbCGT [4]): 0%; conversion rates, mono-C-glycosylation (AbCGT [4]): 4.8% and 5.3%

— article PMC7558026, “Exploring and applying the substrate promiscuity of a C-glycosyltransferase in the chemo-enzymatic synthesis of bioactive C-glycosides” (Nature Communications, 2020)
